Reference: US20050019746A1, “Apoptosis-related kinase/GPCRs” (EiRx Therapeutics Limited, priority 2003, published 2005)

Key:
[1] = tested on: target gene mRNA in PC3 cells; assay: Validation of siRNA efficacy by QPCR in PC3 cells; format: cell-based, human; details: PC3, siRNA 50 nM, RNAiFect, 24 hours post transfection, relative to non-silencing control, normalised to GAPDH
Experimental: To evaluate the ability of each siRNA oligonucleotides to knock down its intended target, each siRNA was validated in a cell line known to express the target, in this example the genes were tested PC3 cells, which were shown by expression profiling to express all target genes. The efficacy of knockdown was measured using QPCR. Cells are plated at a density of 2×10^4 cells in each well of a 24 well plate and incubated at 37° C. overnight. The siRNA is transfected into cells using RNAiFect reagent (Qiagen) with siRNA at a concentration of 50 nM according to manufacturer's instructions. Additional wells of cells are transfected with 50 nM of a non-silencing control (Qiagen). […] Transfected cells are harvested at 24 hours post transfection, and RNA extracted using RNeasy Miniprep columns with an on-column DNase digestion step. The RNA is eluted in 30 μl of RNase-free H2O. cDNA is synthesised from 12 μl of this RNA using an anchored oligo(dT) primer (Sigma) and Transcriptor reverse transcriptase (Roche) at 55° C. in a total volume of 20 μl following the manufacturer's instructions. The resulting cDNA is diluted to a total of 200 μl with H2O and 10 μl used in each QPCR reaction. The levels of transcript are compared by QPCR, relative to the non-silencing control. QPCR is performed using primers, conditions and methodology identical to those used for expression profiling, see Table 8. All reactions were performed in duplicate and the average Ct values calculated. For each sample, the Ct of each target gene in normalised to GAPDH. Relative expression between cells transfected with target or non-silencing siRNA, normalised to GAPDH expression, is determined by the comparative Ct method.

[2] = tested on: target gene mRNA in U251 cells; assay: Knockdown by RNAi, QPCR, U251 cells; format: cell-based, human; details: U251, 24 hrs post transfection, relative to missense control
Experimental: These siRNA oligos are initially tested for efficacy in a cell line in which the gene is expressed for example in the Hela, U251, TF1 or DU145 cell lines. Cells are plated at a density of between 7.5-10×10^4 in each well of a 6 well plate and incubated at 37° C. overnight in DMEM culture medium (1× Dulbeccos modified Eagles medium (Sigma D2554), 0.004% folic acid, 4 mM L-glutamine, 0.37% sodium bicarbonate, 0.1 mM sodium pyruvate) containing 10% fetal calf serum (FCS). 2 μg of duplex siRNA is transfected into cells using DMRIE-C reagent (Invitrogen 10459-014) according to methods described in U.S. Patent Application No. 60/498,488. In brief, to prepare 1 ml of a transfection solution 2 μg of siRNA duplex in added to 1 ml of Optimem (Gibco), to which 8 μl of DMRIE C reagent is added. Transfection mix is added directly to the cells and incubated for 4 hrs at 37° C. Post this 4 hr incubation, transfection solution is removed and cells are refed with fresh culture medium and incubated for a further 24 hrs. An additional medium change is required at this point to minimise toxicity of the transfection procedure. Cells are harvested at 24 or 48 hrs post transfection for analysis of mRNA expression. […]
After DMRIE transfections with siRNA Oligos against the apoptosis associated genes identified herein, or controls, cells are harvested at 24 or 48 hours post transfection as stated previously. […] RNA is quantified by spectrophotometric analysis and 1 μg is reverse transcribed into cDNA using SuperScriptII RNAseH-Reverse Transcriptase (Invitrogen 18064-014). […] QPCR primers are designed to amplify a PCR product of approximately 100 to 300 nucleotides in length from the CDS, following the guidelines outlined in the Quantitect SYBR Green PCR handbook from Qiagen.
Two template standards are used for quantitative PCR assessment of mRNA levels: • 1. A control RPS13 i.e. Ribosomal Protein Sub unit 13 (NM_001017) amplified PCR product diluted to [1000,100,10,1 and 0.1 fg] respectively, used to quantify the level of transcript; • 2. […]

siRNA ROCK: siRNA duplex, sense UACAUGCCUGGUGGAGAUCtt, antisense GAUCUCCACCAGGCAUGUAtt; same in Tables 9 and 11 (sense UACAUGCCUGGUGGAGAUCTT; antisense GAUCUCCACCAGGCAUGUATT; chemistry not given here)
Decrease in expression of target gene [1]: 65.0%

siRNA P14KB: sense GCUACGGAAGCUGAUCCUCtt, antisense GAGGAUCAGCUUCCGUAGCtt (sense GCUACGGAAGCUGAUCCUCTT; antisense GAGGAUCAGCUUCCGUAGCTT; chemistry not given here)
% Knockdown by RNAi, U251 [2]: 36%

siRNA Survivin: positive control siRNA, sense GAACUGGCCCUUCUUGGAGtt, antisense CUCCAAGAAGGGCCAGUUCtt (sense GAACUGGCCCUUCUUGGAGTT; antisense CUCCAAGAAGGGCCAGUUCTT; chemistry not given here) [reference compound]
% Knockdown by RNAi, U251 [2]: 47% | Decrease in expression of target gene [1]: 82.2%

siRNA NTKL: siRNA duplex, sense UGUGGAGCUGAUGAAGCACtt, antisense GUGCUUCAUCAGCUCCACAtt; same in Tables 9 and 11 (sense UGUGGAGCUGAUGAAGCACTT; antisense GUGCUUCAUCAGCUCCACATT; chemistry not given here)
% Knockdown by RNAi, U251 [2]: 37% | Decrease in expression of target gene [1]: 82.9%

siRNA GRAF: siRNA duplex, sense GCGGAAGUUUGCAGAUUCCtt, antisense GGAAUCUGCAAACUUCCGCtt; same in Tables 9 and 11 (sense GCGGAAGUUUGCAGAUUCCTT; antisense GGAAUCUGCAAACUUCCGCTT; chemistry not given here)
Decrease in expression of target gene [1]: 64.5%

siRNA EKI: siRNA duplex, sense GCACUGGAUCCAAAGCAUGtt, antisense CAUGCUUUGGAUCCAGUGCtt; same in Tables 9 and 11 (sense GCACUGGAUCCAAAGCAUGTT; antisense CAUGCUUUGGAUCCAGUGCTT; chemistry not given here)
Decrease in expression of target gene [1]: 76.0%
